Laboratory results published in article PMC12169663, “Deciphering the Tumor Uptake of Heterobivalent (SST2/Albumin) [^64Cu]Cu-NODAGA-cLAB-TATEs” (Journal of Medicinal Chemistry, 2025).
Like-named read-outs stand apart in the source and are kept apart here.

How the values were obtained:
[1] = set-up: method as in not given; settings: previously characterized; ref not given; cited from earlier work
HSA [2] = molecular target: T1, HSA (Homo sapiens, UniProt P02768); assay: Kd[HSA] from SST2 saturation binding in presence of HSA, nonlinear regression with model of Blakeley et al.
Description: Blakeley et al. developed a mathematical model that includes radioligand, protein (herein HSA), and target receptor (herein SST2) to derive the K d[HSA] value of the radioligand from saturation binding experiments to the target receptor in the presence of HSA. The authors specified an explicit mathematical solution for their proposed cubic equation and provided this solution also in a practical format for GraphPad Prism, which allows the analysis of experimental data but also simulations.

HSA [3] = molecular target: T1, HSA; assay: Schild analysis of SST2 binding in the presence of HSA
Protocol: 5 Schild analysis of SST2 binding in the presence of HAS. […] Simulation was performed in GraphPad Prism (version 10.2.3) according to the solution in PRISM language provided by Blakeley et al. for their derived cubic equation. (B, C) Exemplary saturation binding curves of [^64Cu]-Cu-NODAGA-cLAB2-TATE (B) and [^64Cu]-Cu-NODAGA-TATE (C) to intact MPC cells in the presence of increasing concentrations of HSA. For each curve, data shown are mean values (±SD) of one experiment, which was performed in triplicate. […] This plot was analyzed by linear regression. The simulation data provide a slope of unity, while for [^64Cu]-Cu-NODAGA-cLAB2-TATE, a slope of 0.69 (CI of 95%: 0.48–0.90, R ^2 = 0.990) was obtained.
Analyzing the experimental data by nonlinear regression according to the model of Blakeley et al. with fixed values for [HSA], [SST2], and K d[SST2], provided the K d[HSA] values (Table ). […]
For Schild analysis, the ratio (similar to the agonist dose ratio, DR) between the apparent K d value in the presence of each HSA concentration and the K d value in the absence of HSA was calculated. Then, the logarithm of these DR minus 1 (log(DR-1)) was calculated and plotted against the log of the concentration of HSA. This plot was analyzed by linear regression with the x-intercept equals to the log(K d) value of the radioligand for HSA.

[4] = test system: MPC tumor-bearing NMRI-nu/nu mice; set-up: method as in not given; settings: previous study of the authors, ref not given, cited from earlier work
[5] = molecular target: human serum albumin (HSA) (Homo sapiens, UniProt P02768); assay: Radiometric ultrafiltration assay for binding to HSA
Protocol: The ultrafiltration assay used to quantify the binding of the ^64Cu-labeled peptides to HSA was performed as previously described for NODAGA-cLAB-TATEs. , Briefly, a constant activity amount of the radioligands (10–15 MBq) were mixed with different HSA concentrations (200 nM–1.4 mM). Aliquots were loaded into the ultrafiltration devices (4104 centrifugal filter units by Millipore; 30 000 Da nominal molecular weight limit, methylcellulose micropartition membranes) and centrifuged. After centrifugation, aliquots from the top and bottom fractions were measured in a γ-counter (PerkinElmer, Wizard^2 2480 automatic gamma counter). The retained fraction was calculated as a quotient of these measurements. The dissociation constant, K d, was calculated using the Morrison equation.

MPC cells = assay: Cell binding and uptake (internalization) in MPC cells; format: cell-based, mouse
Protocol: Furthermore, the receptor-mediated endocytosis (referred to as internalization) of the novel compounds was assessed. The values for the internalized fraction (or “acid wash” resistant fraction) were >50% (Figure S5), which might indicate a similar pharmacological behavior of these ligands upon binding to SST2 as the parent ligand TATE.
Cell binding and uptake were measured as previously described. , MPC cells were seeded into collagen-coated 24-well microplates and cultivated for 4 days. All washing steps were performed using PBS containing 0.9 mM CaCl2 and 0.5 mM MgCl2. Total radioligand uptake was measured after incubation with the radioligand (A m = 30 GBq/μmol) at a final concentration of 20 nM in RPMI 1640 medium with GlutaMAX supplement (Thermo Fisher Scientific) for 1 h at 37 and 4 °C. Nonspecific binding was determined in the presence of 20 μM Acetyl-TATE. The uptake fraction was measured after acid wash of cell surface-bound radioligand with wash buffer containing 0.05 M glycine, pH 2.8, for 5 min. The activity of cell homogenates was measured using the γ counter Wizard (PerkinElmer). The protein content of cell homogenates was measured as described above.
Figure S5: Cell binding data
Data shown in A and B are mean values (±SD) of one experiment (NODAGA-cLAB(5/6)- TATE and NODAGA-cLAB4-scrTATE) or 3 experiments (±SEM, DOTA-EB-TATE), which were performed in sextuplicate. In C, the amount of specific “internalized” (acid resistant) radioligand (red bars in A, mean values) is expressed as percentage of specific total -bound radioligand (blue bars in A, mean values). The difference to 100% was assigned to “surface - bound” radioligand. For a better overview, the compound names were abbreviated. […]
specific binding of radioligand
Incubation at 37°C for 1 h
(% dose/mg of protein) Washing with
Incubation at 4°C for 1 h […]
(1 picture or pasted object on this page, not shown here)

[6] = Small-animal PET imaging in subcutaneous MPC tumor allograft model; settings: female, NMRI-nu/nu (Rj:NMRI-Foxn1nu/nu), mouse, tumor, iv, total radioactivity
Protocol: (§2) The biodistribution of [ ^ 64 Cu]­Cu-NODAGA-cLAB­(5/6)-TATE, [ ^ 64 Cu]­Cu-NODAGA-cLAB4- scr TATE, and [ ^ 64 Cu]­Cu-DOTA-EB-TATE was assessed in a subcutaneous MPC tumor allograft model via small-animal PET imaging (Figure A–D). The time-activity curves (TACs) for tumor, kidneys, and heart are shown in Figure A–D (for TACs of muscle and liver, see Figure S6) and the calculated areas under curves (AUC0–48h) and tumor-to-tissue ratios are graphically summarized in Figure E,F, respectively.
(§3) (A–D) Time-activity curves (SUV, decay-corrected, as a function of time up to 48 h) obtained by PET acquisition are depicted (0–2 h in dynamic mode and time points 5, 24, and 48 h p.i.; the x-axes are segmented accordingly). Data shown are mean values (±SD) of a group of MPC tumor-bearing NMRI-nu/nu mice (n = 2, but for cLAB6-TATE n = 4). […] (E) Calculated AUC0–48h values. Data shown are mean values (±SD). (F) Tumor/organ ratios based in the AUC0–48h values.
(§4) A number of 4 × 10^6 MPC cells were resuspended in 40 μL of Dulbecco’s phosphate-buffered saline and injected subcutaneously into the shoulder of 7–10-week-old female nude mice (Rj:NMRI-Foxn1^nu/nu, Janvier Laboratories, Le Genest-Saint-Isle, France). General anesthesia was induced and maintained with inhalation of 10% (v/v) desflurane in 30% oxygen/air (v/v). Tumor growth was monitored using caliper measurements. Animals were sacrificed using CO2 inhalation and cervical dislocation. When diameters of MPC tumors reached 8 ± 3 mm (volumes of 65–282 mm^3), small-animal positron emission tomography (PET) was performed using the nanoScan PET/CT (Mediso Medical Imaging Systems, Budapest, Hungary) and Si78 PET/CT (BRUKER, Billerica, MA) instruments. Scanners were cross-calibrated using a syringe source containing 10 MBq of [^64Cu]­CuCl2 diluted in 2 mL of 0.01 M HCl. Each mouse (n = 2) received between 7 and 10 MBq of the respective radioligand (A m = 40 GBq/μmoL) delivered in 0.154 M NaCl via intravenous injection through a tail vein catheter within the initial 30 s after scan start. […] Standardized uptake values (SUV = [MBq detected activity/mL tissue]/[MBq injected activity/g body weight]) were determined in defined volumes of interest (VOIs) and reported as VOI-averaged SUVmean ± range [min–max]. Assuming a density of 1 g/mL for body tissues, the SUVs become dimensionless.

[7] = test system: MPC tumor-bearing NMRI-nu/nu mice; assay: as above; settings: PET, i.v., 7–10 MBq/animal
Protocol: as §2, §3, §4

[8] = Plasma stability assay, human plasma; format: in vitro ADME; settings: 37 °C, up to 24 h, single experiment, read-out: t1/2 (plasma), human
Description: Previously, we discovered that the ^64Cu-labeled NODAGA-cLAB-TATEs with a primary amide functionality within the albumin-binding moiety are subject to a metabolic transformation in mouse plasma. In fact, the primary amide is slowly hydrolyzed to the carboxylic acid, which turned out to be catalyzed by plasma carboxylesterases as proven by blocking this transformation in the presence of bis-para-nitrophenylphosphate. […] As this transformation entails also an increase in the binding affinity to albumin, there might be effects on the biodistribution in mice, in particular the blood circulation time. To investigate this, NODAGA-cLAB6-TATE was designed, with cLAB6 (N3Bz-D-Lys(MPB)-NH2) representing the D-configured pendant of cLAB4 (N3Bz-L-Lys(MPB)-NH2). […] However, the apparent half-lives for both compounds (≈13 and >24 h) are longer compared to the half-lives previously determined for [ ^ 64 Cu]-Cu-NODAGA-cLAB3-TATE and [ ^ 64 Cu]-Cu-NODAGA-cLAB4-TATE (≈6 and ≈3 h, respectively). […]
(§1) Plasma stability of the radioligands was done as previously described for NODAGA-cLAB-TATE and NODAGA-NES-TATEs. , Briefly, an aliquot of the radioligand was added to plasma and stability was assessed at different time points by withdrawing an aliquot, followed by protein precipitation and analysis by radio-HPLC.

[9] = Plasma stability assay, mouse plasma; format: in vitro ADME
Description: Previously, we discovered that the ^64Cu-labeled NODAGA-cLAB-TATEs with a primary amide functionality within the albumin-binding moiety are subject to a metabolic transformation in mouse plasma. In fact, the primary amide is slowly hydrolyzed to the carboxylic acid, which turned out to be catalyzed by plasma carboxylesterases as proven by blocking this transformation in the presence of bis-para-nitrophenylphosphate. […] As this transformation entails also an increase in the binding affinity to albumin, there might be effects on the biodistribution in mice, in particular the blood circulation time. To investigate this, NODAGA-cLAB6-TATE was designed, with cLAB6 (N3Bz-D-Lys(MPB)-NH2) representing the D-configured pendant of cLAB4 (N3Bz-L-Lys(MPB)-NH2). […] However, the apparent half-lives for both compounds (≈13 and >24 h) are longer compared to the half-lives previously determined for [ ^ 64 Cu]-Cu-NODAGA-cLAB3-TATE and [ ^ 64 Cu]-Cu-NODAGA-cLAB4-TATE (≈6 and ≈3 h, respectively). For better comparability, the stability of [ ^ 64 Cu]-Cu-NODAGA-cLAB4-TATE was again examined with the same mouse plasma batch used for [ ^ 64 Cu]-Cu-NODAGA-cLAB5-TATE and [ ^ 64 Cu]-Cu-NODAGA-cLAB4- scr TATE. […] Therefore, the discrepancy with our previously reported stability data in mouse plasma might result from differences in the activity of plasma carboxylesterases in the obtained mouse plasma. However, the rate of amide hydrolysis is indeed lower for [ ^ 64 Cu]-Cu-NODAGA-cLAB4- scr TATE, independent of the mouse plasma batch, which might indicate that the actual amino acid sequence in these peptides affects the recognition by the plasma carboxylesterases.
2 Stability of the ^64Cu-labeled TATE derivatives in mouse plasma. (A) Radio-HPLC chromatograms of [^64Cu]-Cu-NODAGA-cLAB5-TATE (red), [^64Cu]-Cu-NODAGA-cLAB6-TATE (green), and [^64Cu]-Cu-NODAGA-cLAB- scr TATE (blue) after ^64Cu-labeling and incubation in mouse plasma for 24 h show the transformation of [^64Cu]-Cu-NODAGA-cLAB5-TATE and [^64Cu]-Cu-NODAGA-cLAB4- scr TATE into a metabolite of higher retention time (see the Discussion for explanation). (B) Plot of residual intact radioligands upon incubation with mouse plasma including nonlinear regression (black line) according to one-phase decay for [^64Cu]-Cu-NODAGA-cLAB5-TATE (red circles). The dotted lines represent fractions of 0.5 and 0.9. Data shown are mean values (±SD) from 1 to 3 experiments (each experiment was performed in single execution). […]
as §1

[10] = n-Octanol/PBS distribution coefficient (log D7.4)
Protocol: The log D7.4 values of the ^64Cu-labeled peptides were determined with the octanol partitioning method.
The determination of the log D7.4 value was done in triplicate as previously described. , Briefly, a sample of the radioligand was added to the 1:1 mixture of PBS/n-octanol. The radioactivity in a defined volume of each layer was measured (ISOMED 2100). The distribution coefficient was expressed as the logarithm of the ratio of counts per minute (cpm) measured in the n-octanol phase to the cpm measured in the PBS phase.

[11] = 1–100 μM HSA, read-out: Kd[HSA] derived from saturation binding, range over the HSA concentrations
[12] = [HSA] 20 μM, read-out: Kd[HSA] derived from saturation binding
[13] = [HSA] 40 μM, read-out: Kd[HSA] derived from saturation binding
[14] = [HSA] 100 μM, read-out: Kd[HSA] derived from saturation binding

T1 sequence (P02768 25-609): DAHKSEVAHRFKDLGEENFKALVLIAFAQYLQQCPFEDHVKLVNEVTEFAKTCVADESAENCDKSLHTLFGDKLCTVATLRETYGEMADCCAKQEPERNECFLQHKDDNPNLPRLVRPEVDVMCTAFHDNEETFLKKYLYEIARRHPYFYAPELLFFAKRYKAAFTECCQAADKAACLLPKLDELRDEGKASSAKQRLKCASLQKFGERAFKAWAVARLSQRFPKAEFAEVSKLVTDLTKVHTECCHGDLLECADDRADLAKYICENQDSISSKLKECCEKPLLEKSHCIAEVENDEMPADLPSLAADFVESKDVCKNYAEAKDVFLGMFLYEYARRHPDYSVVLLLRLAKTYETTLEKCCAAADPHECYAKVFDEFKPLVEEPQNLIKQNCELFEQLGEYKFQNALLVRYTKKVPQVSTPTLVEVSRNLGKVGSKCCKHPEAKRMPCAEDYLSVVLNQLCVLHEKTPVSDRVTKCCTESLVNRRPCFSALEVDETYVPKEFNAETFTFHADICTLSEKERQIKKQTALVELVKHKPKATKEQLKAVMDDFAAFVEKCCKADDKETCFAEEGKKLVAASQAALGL
Sequence of human serum albumin (HSA) (P02768 25-609): as above

SMILES: C[C@@H](O)[C@H](NC(=O)[C@@H]1CSSC[C@H](NC(=O)[C@@H](Cc2ccccc2)NC(=O)CC[C@H](C(=O)O)N2CCN(CC(=O)O)CCN(CC(=O)O)CC2)C(=O)N[C@@H](Cc2ccc(O)cc2)C(=O)N[C@H](Cc2c[nH]c3ccccc23)C(=O)N[C@@H](CCCCN)C(=O)N[C@@H]([C@@H](C)O)C(=O)N1)C(=O)O [[64Cu]Cu-NODAGA-TATE, metal not drawn]
- log D7.4 [1]: −3.43
- Kd (HSA [2]; [11]): 3.9 to 108 µM
- Kd (HSA [2]; [HSA] 1 μM, read-out: Kd[HSA] derived from saturation binding): 5.63 µM
- Kd (HSA [2]; [HSA] 5 μM, read-out: Kd[HSA] derived from saturation binding): 4.02 µM
- Kd (HSA [2]; [12]): 3.89 µM
- Kd (HSA [2]; [13]): 16.7 µM
- Kd (HSA [2]; [14]): 108 µM

SMILES: C[C@@H](O)[C@H](NC(=O)[C@@H]1CSSC[C@H](NC(=O)[C@@H](Cc2ccccc2)NC(=O)COCCOCCNC(=O)[C@H](Cc2cn(-c3ccc(C(=O)N[C@@H](CCCCNC(=O)CCCc4ccc(I)cc4)C(=O)O)cc3)nn2)NC(=O)CC[C@H](C(=O)O)N2CCN(CC(=O)O)CCN(CC(=O)O)CC2)C(=O)N[C@@H](Cc2ccc(O)cc2)C(=O)N[C@H](Cc2c[nH]c3ccccc23)C(=O)N[C@@H](CCCCN)C(=O)N[C@@H]([C@@H](C)O)C(=O)N1)C(=O)O [[64Cu]Cu-NODAGA-cLAB2-TATE, metal not drawn]
- slope of Schild plot (HSA [3]; linear regression, CI of 95%: 0.48–0.90): 0.69
- Kd (HSA [3]; x-intercept of Schild plot, 5–100 μM HSA): 1.8 µM
- Kd (HSA [2]; [11]): 2.6 to 6.1 µM
- Kd (HSA [2]; [12]): 3.06 µM
- Kd (HSA [2]; [13]): 2.59 µM
- Kd (HSA [2]; [14]): 6.12 µM
- tumor SUVmean ([4]; 24 h p.i.): 3.1
- tumor SUVmean ([4]; 48 h p.i.): 2.4
- AUC0–48h[tumor] ([4]; same MPC model): 123 SUVmean*h
- fu ([5]; 1 μM HSA, fu=Kd/(Bmax+Kd)): 0.64
- fu ([5]; 5 μM HSA): 0.26
- fu ([5]; 20 μM HSA): 0.08
- fu ([5]; 40 μM HSA): 0.04
- fu ([5]; 100 μM HSA): 0.02

SMILES: C[C@@H](O)[C@H](NC(=O)[C@@H]1CSSC[C@H](NC(=O)[C@@H](Cc2ccccc2)NC(=O)COCCOCCNC(=O)[C@H](Cc2cn(-c3ccc(C(=O)N[C@@H](CCCCNC(=O)CCCc4ccc(F)cc4)C(N)=O)cc3)nn2)NC(=O)CC[C@H](C(=O)O)N2CCN(CC(=O)O)CCN(CC(=O)O)CC2)C(=O)N[C@@H](Cc2ccc(O)cc2)C(=O)N[C@H](Cc2c[nH]c3ccccc23)C(=O)N[C@@H](CCCCN)C(=O)N[C@@H]([C@@H](C)O)C(=O)N1)C(=O)O [[64Cu]Cu-NODAGA-cLAB5-TATE, metal not drawn]
- specific binding of radioligand (MPC cells; incubation at 4 °C for 1 h, washing with PBS pH 7.4, 20 nM): 0.94 % dose/mg of protein
- specific binding of radioligand (MPC cells; incubation at 4 °C for 1 h, washing with glycine buffer pH 2.8, 20 nM): 0.30 % dose/mg of protein
- specific binding of radioligand (MPC cells; incubation at 37 °C for 1 h, washing with PBS pH 7.4 (total bound), 20 nM): 5.74 %dose/mg of protein
- specific binding of radioligand (MPC cells; incubation at 37 °C for 1 h, washing with glycine buffer pH 2.8 (acid resistant), 20 nM): 3.34 %dose/mg of protein
- SUV [6]: 8.9 SUV
- SUV at 2 h [6]: 7.9 SUV
- SUV at 4 h [6]: 4.9 SUV
- SUV at 24 h [6]: 2.3 SUV
- AUC0-48h heart [7]: 5.98 SUVmean*h
- AUC0-48h kidney [7]: 32.36 SUVmean*h
- AUC0-48h liver [7]: 22.25 SUVmean*h
- AUC0-48h tumor [7]: 148 SUVmean*h
- AUC0-48h tumor ([7]; listed as cLAB5): 148.10 SUVmean*h
- half-life [8]: > 24 h
- Kd [5]: 440 µM
- half-life ([9]; 37 °C, up to 24 h, single experiment, read-out: t1/2 (plasma), mouse): ~13 h
- hydrolysis of the primary amide in mouse plasma ([9]; 24 h, radio-HPLC): hydrolyzed
- logD [10]: -2.27
